No end group written: not given here.
Assays:
[1] = target: recombinant HLA B*0702 (Homo sapiens, UniProt P01889); assay: biochemical; type: binding
[2] = tested on: CD8^+ T-cells specific for the “majority”; assay: Cross-reactivity of CD8+ T-cells with UL49 AA 49-57 variants; type: cell-based, human

| Sequence | IC50 [1] | cross-reactivity of majority-specific CD8^+ T-cells [2] |
| --- | --- | --- |
| RPRGEVREFL | < 2 nM | – |
| RPRGKVRFL | – | not cross-reactive |

Source: US8840904B2, “Compositions and methods for vaccinating against HSV-2” (priority 2006, dated 2014)
